{"source": "paper PMC9250534", "about": "“Synthesis and direct assay of large macrocycle diversities by combinatorial late-stage modification at picomole scale” (Nature Communications, 2022)"}
{"target": "MDM2 (Homo sapiens, UniProt Q00987)", "sequence (Q00987 whole entry)": "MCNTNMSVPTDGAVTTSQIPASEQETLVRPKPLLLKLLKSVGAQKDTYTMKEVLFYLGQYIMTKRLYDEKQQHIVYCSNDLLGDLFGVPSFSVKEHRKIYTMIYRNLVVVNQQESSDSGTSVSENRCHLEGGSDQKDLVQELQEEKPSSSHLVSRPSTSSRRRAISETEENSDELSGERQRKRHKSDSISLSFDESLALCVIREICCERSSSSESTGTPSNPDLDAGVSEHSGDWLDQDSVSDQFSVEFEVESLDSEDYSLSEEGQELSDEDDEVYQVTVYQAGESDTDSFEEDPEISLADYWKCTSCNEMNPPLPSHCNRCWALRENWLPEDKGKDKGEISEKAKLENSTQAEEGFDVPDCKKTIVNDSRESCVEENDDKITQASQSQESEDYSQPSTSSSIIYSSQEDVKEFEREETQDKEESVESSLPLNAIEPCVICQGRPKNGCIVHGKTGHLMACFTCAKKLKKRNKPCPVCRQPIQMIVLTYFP", "test": "MDM2 binding screen of Libraries 3 and 4: displacement of fluorescent probe F-M8 at 750 nM macrocycle", "settings": "Panel b, Library 3: 63 scaffolds combinatorially acylated with 15 carboxylic acids at 30 picomole scale; displacement of fluorescent peptide probe; macrocycle 750 nM", "outline": "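Competition with nutlin-3a was run using the fluorescein conjugate. Library members came from scaffolds reacted 6 h at room temperature with carboxylic acids (20 equiv.), HBTU and DABCO in DMSO. Quenching was overnight in Tris-Cl pH 7.4 buffer with 0.01% Tween20.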"}
{"smiles": "Cn1cc(C[C@@H]2NC(=O)CN(CCNC(=O)CCS(=O)(=O)c3ccccc3)C(=O)[C@@H]3CN(CCO3)C(=O)CCSSCCNC2=O)c2ccccc21", "note": "[X-Cop-N-Aeg-Me-Trp + Acid 114]", "fraction of fluorescent probe displaced": -0.012}
{"smiles": "CN1C(=O)CN(CCNC(=O)c2ccc(Cl)s2)C(=O)[C@@H]2CN(CCO2)C(=O)CCSSCCNC(=O)[C@@H]1Cc1c[nH]c2ccccc12", "note": "[X-Cop-N-Aeg-NMe-Trp + Acid 14]", "fraction of fluorescent probe displaced": -0.025}
{"smiles": "CN1C(=O)CN(CCNC(=O)c2ccc(Cl)cc2)C(=O)C2CN(CCO2)C(=O)CCSSCCNC(=O)C1Cc1c[nH]c2ccccc12", "note": "(stereo not shown) [X-Cop-N-Aeg-NMe-Trp + Acid 25]", "fraction of fluorescent probe displaced": 0.021}
{"smiles": "CN1C(=O)CN(CCNC(=O)/C=C/c2ccc3ccccc3c2)C(=O)[C@@H]2CN(CCO2)C(=O)CCSSCCNC(=O)[C@@H]1Cc1c[nH]c2ccccc12", "note": "[X-Cop-N-Aeg-NMe-Trp + Acid 112]", "fraction of fluorescent probe displaced": 0.015}
{"smiles": "O=C1CN(CCNC(=O)c2ccc(Cl)cc2)C(=O)C2CN(CCO2)C(=O)CCSSCCNC(=O)C(Cc2c[nH]c3ccccc23)N1", "note": "(stereo not shown) [X-Cop-N-Aeg-Trp + Acid 25]", "fraction of fluorescent probe displaced": 0.055}
{"smiles": "O=C1CN(CCNC(=O)c2ccc3ccccc3c2)C(=O)[C@@H]2CN(CCO2)C(=O)CCSSCCNC(=O)[C@H](Cc2c[nH]c3ccccc23)N1", "note": "[X-Cop-N-Aeg-Trp + Acid 107]", "fraction of fluorescent probe displaced": 0.00455}
{"smiles": "O=C(/C=C/c1ccc(OCc2ccccc2)cc1)NCCN1CC(=O)N[C@@H](Cc2c[nH]c3ccccc23)C(=O)NCCSSCCC(=O)N2CCO[C@@H](C2)C1=O", "note": "[X-Cop-N-Aeg-Trp + Acid 110]", "fraction of fluorescent probe displaced": 0.015}
{"smiles": "O=C(/C=C/c1ccc2ccccc2c1)NCCN1CC(=O)N[C@@H](Cc2c[nH]c3ccccc23)C(=O)NCCSSCCC(=O)N2CCO[C@@H](C2)C1=O", "note": "[X-Cop-N-Aeg-Trp + Acid 112]", "fraction of fluorescent probe displaced": 0.028}
{"smiles": "O=C1CN(CCNC(=O)C2COc3ccccc3O2)C(=O)[C@@H]2CN(CCO2)C(=O)CCSSCCNC(=O)[C@H](Cc2c[nH]c3ccccc23)N1", "note": "(stereo partly shown) [X-Cop-N-Aeg-Trp + Acid 115]", "fraction of fluorescent probe displaced": -0.012}
{"smiles": "O=C(NC[C@H]1NC(=O)[C@H]2CCCN(C2)C(=O)CCSSCCNC(=O)[C@H](Cc2cccc3ccccc23)NC1=O)c1ccc(Cl)s1", "note": "[X-Nip-D-Dap-1-NaI + Acid 14]", "fraction of fluorescent probe displaced": -0.019}
{"smiles": "O=C(NC[C@H]1NC(=O)[C@H]2CCCN(C2)C(=O)CCSSCCNC(=O)[C@H](Cc2cccc3ccccc23)NC1=O)c1ccc(Cl)cc1", "note": "[X-Nip-D-Dap-1-NaI + Acid 25]", "fraction of fluorescent probe displaced": 0.015}
{"smiles": "O=C(NC[C@H]1NC(=O)[C@H]2CCCN(C2)C(=O)CCSSCCNC(=O)[C@H](Cc2cccc3ccccc23)NC1=O)c1ccc2ccccc2c1", "note": "[X-Nip-D-Dap-1-NaI + Acid 107]", "fraction of fluorescent probe displaced": 0.00455}
{"smiles": "O=C(/C=C/c1ccc2ccccc2c1)NC[C@H]1NC(=O)[C@H]2CCCN(C2)C(=O)CCSSCCNC(=O)[C@H](Cc2cccc3ccccc23)NC1=O", "note": "[X-Nip-D-Dap-1-NaI + Acid 112]", "fraction of fluorescent probe displaced": 0.021}
{"smiles": "CC(Oc1cccc(Cl)c1)C(=O)NC[C@H]1NC(=O)[C@H]2CCCN(C2)C(=O)CCSSCCNC(=O)[C@H](Cc2cccc3ccccc23)NC1=O", "note": "(stereo partly drawn) [X-Nip-D-Dap-1-NaI + Acid 113]", "fraction of fluorescent probe displaced": 0.00133}
{"smiles": "O=C(CCS(=O)(=O)c1ccccc1)NC[C@H]1NC(=O)[C@H]2CCCN(C2)C(=O)CCSSCCNC(=O)[C@H](Cc2cccc3ccccc23)NC1=O", "note": "[X-Nip-D-Dap-1-NaI + Acid 114]", "fraction of fluorescent probe displaced": -0.00533}
{"smiles": "O=C(NC[C@H]1NC(=O)[C@H]2CCCN(C2)C(=O)CCSSCCNC(=O)[C@H](Cc2cccc3ccccc23)NC1=O)C1COc2ccccc2O1", "note": "(stereo partly drawn) [X-Nip-D-Dap-1-NaI + Acid 115]", "fraction of fluorescent probe displaced": 0.021}
{"smiles": "O=C(/C=C/c1ccc(Cl)cc1)NC[C@H]1NC(=O)[C@H]2CCCN(C2)C(=O)CCSSCCNC(=O)[C@H](Cc2ccc3ccccc3c2)NC1=O", "note": "[X-Nip-D-Dap-2-Nal + Acid 108]", "fraction of fluorescent probe displaced": 0.021}
{"smiles": "O=C(/C=C/c1ccc(OCc2ccccc2)cc1)NC[C@H]1NC(=O)[C@H]2CCCN(C2)C(=O)CCSSCCNC(=O)[C@H](Cc2ccc3ccccc3c2)NC1=O", "note": "[X-Nip-D-Dap-2-Nal + Acid 110]", "fraction of fluorescent probe displaced": 0.008}
{"smiles": "O=C(NC[C@H]1NC(=O)[C@H]2CCCN(C2)C(=O)CCSSCCNC(=O)[C@H](Cc2ccc3ccccc3c2)NC1=O)c1cccc(Oc2ccccc2)c1", "note": "[X-Nip-D-Dap-2-Nal + Acid 111]", "fraction of fluorescent probe displaced": 0.00133}
{"smiles": "O=C(/C=C/c1ccc2ccccc2c1)NC[C@H]1NC(=O)[C@H]2CCCN(C2)C(=O)CCSSCCNC(=O)[C@H](Cc2ccc3ccccc3c2)NC1=O", "note": "[X-Nip-D-Dap-2-Nal + Acid 112]", "fraction of fluorescent probe displaced": 0.008}
{"smiles": "O=C(CCS(=O)(=O)c1ccccc1)NC[C@H]1NC(=O)[C@H]2CCCN(C2)C(=O)CCSSCCNC(=O)[C@H](Cc2ccc3ccccc3c2)NC1=O", "note": "[X-Nip-D-Dap-2-Nal + Acid 114]", "fraction of fluorescent probe displaced": 0.048}
{"smiles": "O=C(NC[C@H]1NC(=O)[C@H]2CCCN(C2)C(=O)CCSSCCNC(=O)[C@H](Cc2c[nH]c3cc(Cl)ccc23)NC1=O)c1ccc(Cl)cc1", "note": "[X-Nip-D-Dap-Cl-Trp + Acid 25]", "fraction of fluorescent probe displaced": 0.041}
{"smiles": "O=C(/C=C/c1ccncc1)NC[C@H]1NC(=O)[C@H]2CCCN(C2)C(=O)CCSSCCNC(=O)[C@H](Cc2c[nH]c3cc(Cl)ccc23)NC1=O", "note": "[X-Nip-D-Dap-Cl-Trp + Acid 106]", "fraction of fluorescent probe displaced": 0.018}
{"smiles": "O=C(NC[C@H]1NC(=O)[C@H]2CCCN(C2)C(=O)CCSSCCNC(=O)[C@H](Cc2c[nH]c3cc(Cl)ccc23)NC1=O)c1ccc2ccccc2c1", "note": "[X-Nip-D-Dap-Cl-Trp + Acid 107]", "fraction of fluorescent probe displaced": 0.024}
{"smiles": "O=C(/C=C/c1ccc(Cl)cc1)NC[C@H]1NC(=O)[C@H]2CCCN(C2)C(=O)CCSSCCNC(=O)[C@H](Cc2c[nH]c3cc(Cl)ccc23)NC1=O", "note": "[X-Nip-D-Dap-Cl-Trp + Acid 108]", "fraction of fluorescent probe displaced": 0.00133}
{"smiles": "O=C(/C=C/c1ccc(OCc2ccccc2)cc1)NC[C@H]1NC(=O)[C@H]2CCCN(C2)C(=O)CCSSCCNC(=O)[C@H](Cc2c[nH]c3cc(Cl)ccc23)NC1=O", "note": "[X-Nip-D-Dap-Cl-Trp + Acid 110]", "fraction of fluorescent probe displaced": 0.008}
{"smiles": "O=C(/C=C/c1ccc2ccccc2c1)NC[C@H]1NC(=O)[C@H]2CCCN(C2)C(=O)CCSSCCNC(=O)[C@H](Cc2c[nH]c3cc(Cl)ccc23)NC1=O", "note": "[X-Nip-D-Dap-Cl-Trp + Acid 112]", "fraction of fluorescent probe displaced": -0.00533}
{"smiles": "CC(Oc1cccc(Cl)c1)C(=O)NC[C@H]1NC(=O)[C@H]2CCCN(C2)C(=O)CCSSCCNC(=O)[C@H](Cc2c[nH]c3cc(Cl)ccc23)NC1=O", "note": "(stereo partly drawn) [X-Nip-D-Dap-Cl-Trp + Acid 113]", "fraction of fluorescent probe displaced": -0.00533}
{"smiles": "O=C(CCS(=O)(=O)c1ccccc1)NC[C@H]1NC(=O)[C@H]2CCCN(C2)C(=O)CCSSCCNC(=O)[C@H](Cc2c[nH]c3cc(Cl)ccc23)NC1=O", "note": "[X-Nip-D-Dap-Cl-Trp + Acid 114]", "fraction of fluorescent probe displaced": 0.015}
{"smiles": "O=C(NC[C@H]1NC(=O)[C@H]2CCCN(C2)C(=O)CCSSCCNC(=O)[C@H](Cc2c[nH]c3cc(Cl)ccc23)NC1=O)C1COc2ccccc2O1", "note": "(stereo partly drawn) [X-Nip-D-Dap-Cl-Trp + Acid 115]", "fraction of fluorescent probe displaced": -0.012}
{"smiles": "O=C(NC[C@H]1NC(=O)[C@H]2CCCN(C2)C(=O)CCSSCCNC(=O)[C@@H](Cc2c[nH]c3ccccc23)NC1=O)c1ccc(Cl)s1", "note": "[X-Nip-D-Dap-D-Trp + Acid 14]", "fraction of fluorescent probe displaced": -0.00533}
{"smiles": "O=C(NC[C@H]1NC(=O)[C@H]2CCCN(C2)C(=O)CCSSCCNC(=O)[C@@H](Cc2c[nH]c3ccccc23)NC1=O)c1ccc(Cl)cc1", "note": "[X-Nip-D-Dap-D-Trp + Acid 25]", "fraction of fluorescent probe displaced": 0.00133}
{"smiles": "O=C(NC[C@H]1NC(=O)[C@H]2CCCN(C2)C(=O)CCSSCCNC(=O)[C@@H](Cc2c[nH]c3ccccc23)NC1=O)c1ccc2ccccc2c1", "note": "[X-Nip-D-Dap-D-Trp + Acid 107]", "fraction of fluorescent probe displaced": 0.050}
{"smiles": "O=C(/C=C/c1ccc(OCc2ccccc2)cc1)NC[C@H]1NC(=O)[C@H]2CCCN(C2)C(=O)CCSSCCNC(=O)[C@@H](Cc2c[nH]c3ccccc23)NC1=O", "note": "[X-Nip-D-Dap-D-Trp + Acid 110]", "fraction of fluorescent probe displaced": -0.012}
{"smiles": "O=C(/C=C/c1ccc2ccccc2c1)NC[C@H]1NC(=O)[C@H]2CCCN(C2)C(=O)CCSSCCNC(=O)[C@@H](Cc2c[nH]c3ccccc23)NC1=O", "note": "[X-Nip-D-Dap-D-Trp + Acid 112]", "fraction of fluorescent probe displaced": 0.075}
{"smiles": "O=C(CCS(=O)(=O)c1ccccc1)NC[C@H]1NC(=O)[C@H]2CCCN(C2)C(=O)CCSSCCNC(=O)[C@@H](Cc2c[nH]c3ccccc23)NC1=O", "note": "[X-Nip-D-Dap-D-Trp + Acid 114]", "fraction of fluorescent probe displaced": 0.021}
{"smiles": "Cn1cc(C[C@@H]2NC(=O)[C@@H](CNC(=O)c3ccc(Cl)s3)NC(=O)[C@H]3CCCN(C3)C(=O)CCSSCCNC2=O)c2ccccc21", "note": "[X-Nip-D-Dap-Me-Trp + Acid 14]", "fraction of fluorescent probe displaced": 0.008}
{"smiles": "Cn1cc(C[C@@H]2NC(=O)[C@@H](CNC(=O)c3ccc(Cl)cc3)NC(=O)[C@H]3CCCN(C3)C(=O)CCSSCCNC2=O)c2ccccc21", "note": "[X-Nip-D-Dap-Me-Trp + Acid 25]", "fraction of fluorescent probe displaced": -0.00533}
{"smiles": "Cn1cc(C[C@@H]2NC(=O)[C@@H](CNC(=O)/C=C/c3ccc(Cl)cc3)NC(=O)[C@H]3CCCN(C3)C(=O)CCSSCCNC2=O)c2ccccc21", "note": "[X-Nip-D-Dap-Me-Trp + Acid 108]", "fraction of fluorescent probe displaced": 0.015}
{"smiles": "Cn1cc(C[C@@H]2NC(=O)[C@@H](CNC(=O)/C=C/c3ccc(OCc4ccccc4)cc3)NC(=O)[C@H]3CCCN(C3)C(=O)CCSSCCNC2=O)c2ccccc21", "note": "[X-Nip-D-Dap-Me-Trp + Acid 110]", "fraction of fluorescent probe displaced": 0.008}
